# Tests used:
# Xaa-Pro aminopeptidase 1 = Xaa-Pro aminopeptidase 1 (Homo sapiens, UniProt Q9NQW7); test: Inhibition of amino peptidase P
# Xaa-Pro dipeptidase = target: T1, Xaa-Pro dipeptidase (Homo sapiens, UniProt P12955); test: Inhibition of prolidase
# T1 sequence (P12955 whole entry): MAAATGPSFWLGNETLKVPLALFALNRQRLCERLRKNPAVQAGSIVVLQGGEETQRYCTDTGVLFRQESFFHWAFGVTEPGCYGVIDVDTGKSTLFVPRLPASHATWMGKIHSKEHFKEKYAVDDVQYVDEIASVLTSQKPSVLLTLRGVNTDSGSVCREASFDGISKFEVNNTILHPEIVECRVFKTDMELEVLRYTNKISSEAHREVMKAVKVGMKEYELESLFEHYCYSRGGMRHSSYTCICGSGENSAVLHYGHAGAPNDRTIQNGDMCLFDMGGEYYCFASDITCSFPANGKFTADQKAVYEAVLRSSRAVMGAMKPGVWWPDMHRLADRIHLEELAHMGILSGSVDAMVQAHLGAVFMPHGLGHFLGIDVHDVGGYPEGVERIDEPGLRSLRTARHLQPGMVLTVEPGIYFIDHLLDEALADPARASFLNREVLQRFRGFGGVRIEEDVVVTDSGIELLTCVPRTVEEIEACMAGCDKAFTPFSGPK
# Prolyl endopeptidase FAP = target: T2, Prolyl endopeptidase FAP (Homo sapiens, UniProt Q12884); test: Inhibition of FAP
# T2 sequence (Q12884 whole entry): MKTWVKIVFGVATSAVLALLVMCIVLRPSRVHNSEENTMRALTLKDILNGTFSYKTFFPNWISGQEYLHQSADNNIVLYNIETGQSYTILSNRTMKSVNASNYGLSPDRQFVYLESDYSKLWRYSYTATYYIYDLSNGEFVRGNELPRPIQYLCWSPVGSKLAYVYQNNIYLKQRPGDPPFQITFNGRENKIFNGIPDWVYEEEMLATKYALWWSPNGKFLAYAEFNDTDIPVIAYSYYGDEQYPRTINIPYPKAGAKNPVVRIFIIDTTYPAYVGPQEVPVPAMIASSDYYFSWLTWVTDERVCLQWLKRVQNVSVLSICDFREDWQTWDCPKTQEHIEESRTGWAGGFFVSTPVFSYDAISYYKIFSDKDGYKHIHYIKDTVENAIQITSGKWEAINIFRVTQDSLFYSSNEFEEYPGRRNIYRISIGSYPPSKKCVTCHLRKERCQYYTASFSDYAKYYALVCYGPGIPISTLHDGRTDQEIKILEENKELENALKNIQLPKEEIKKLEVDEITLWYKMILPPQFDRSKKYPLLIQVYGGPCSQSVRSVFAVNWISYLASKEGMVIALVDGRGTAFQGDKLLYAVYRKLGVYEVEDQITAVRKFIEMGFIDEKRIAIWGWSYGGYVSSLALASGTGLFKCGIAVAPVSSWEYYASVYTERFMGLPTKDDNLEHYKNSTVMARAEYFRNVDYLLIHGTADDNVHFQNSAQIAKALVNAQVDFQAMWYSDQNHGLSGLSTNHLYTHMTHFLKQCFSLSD
# Dipeptidyl peptidase 4 = Dipeptidyl peptidase 4 (Homo sapiens, UniProt P27487)
# Dipeptidyl peptidase 8 = Dipeptidyl peptidase 8 (Homo sapiens, UniProt Q6V1X1); test: Inhibition of DPP8
# Dipeptidyl peptidase 2 = Dipeptidyl peptidase 2 (Homo sapiens, UniProt Q9UHL4); test: Inhibition of QPP
# Dipeptidyl peptidase 9 = Dipeptidyl peptidase 9 (Homo sapiens, UniProt Q86TI2); test: Inhibition of DPP9
# Chain of Dipeptidyl peptidase 9 (Q86TI2 whole entry): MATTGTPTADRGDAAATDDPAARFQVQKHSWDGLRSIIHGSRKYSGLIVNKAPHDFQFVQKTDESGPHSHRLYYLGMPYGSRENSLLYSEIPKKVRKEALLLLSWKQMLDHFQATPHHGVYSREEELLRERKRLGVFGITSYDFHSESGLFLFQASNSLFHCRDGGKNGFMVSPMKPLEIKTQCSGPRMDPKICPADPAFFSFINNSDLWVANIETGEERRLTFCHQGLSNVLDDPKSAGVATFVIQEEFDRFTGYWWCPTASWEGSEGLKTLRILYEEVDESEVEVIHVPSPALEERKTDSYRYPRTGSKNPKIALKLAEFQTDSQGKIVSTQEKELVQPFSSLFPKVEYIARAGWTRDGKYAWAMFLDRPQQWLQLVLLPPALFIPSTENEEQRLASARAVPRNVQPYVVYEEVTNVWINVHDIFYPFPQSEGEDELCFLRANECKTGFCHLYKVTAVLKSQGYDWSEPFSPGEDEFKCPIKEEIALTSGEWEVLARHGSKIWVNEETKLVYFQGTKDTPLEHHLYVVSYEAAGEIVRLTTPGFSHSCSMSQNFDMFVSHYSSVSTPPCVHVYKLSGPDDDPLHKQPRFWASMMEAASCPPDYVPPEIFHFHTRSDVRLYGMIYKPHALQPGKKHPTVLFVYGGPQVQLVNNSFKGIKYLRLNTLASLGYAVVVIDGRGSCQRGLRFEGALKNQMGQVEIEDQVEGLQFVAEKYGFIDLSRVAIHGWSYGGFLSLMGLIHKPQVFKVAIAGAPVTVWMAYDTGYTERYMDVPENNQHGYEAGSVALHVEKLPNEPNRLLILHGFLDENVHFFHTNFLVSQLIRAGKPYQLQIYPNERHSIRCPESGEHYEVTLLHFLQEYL
# Chain of Xaa-Pro aminopeptidase 1 (Q9NQW7 whole entry): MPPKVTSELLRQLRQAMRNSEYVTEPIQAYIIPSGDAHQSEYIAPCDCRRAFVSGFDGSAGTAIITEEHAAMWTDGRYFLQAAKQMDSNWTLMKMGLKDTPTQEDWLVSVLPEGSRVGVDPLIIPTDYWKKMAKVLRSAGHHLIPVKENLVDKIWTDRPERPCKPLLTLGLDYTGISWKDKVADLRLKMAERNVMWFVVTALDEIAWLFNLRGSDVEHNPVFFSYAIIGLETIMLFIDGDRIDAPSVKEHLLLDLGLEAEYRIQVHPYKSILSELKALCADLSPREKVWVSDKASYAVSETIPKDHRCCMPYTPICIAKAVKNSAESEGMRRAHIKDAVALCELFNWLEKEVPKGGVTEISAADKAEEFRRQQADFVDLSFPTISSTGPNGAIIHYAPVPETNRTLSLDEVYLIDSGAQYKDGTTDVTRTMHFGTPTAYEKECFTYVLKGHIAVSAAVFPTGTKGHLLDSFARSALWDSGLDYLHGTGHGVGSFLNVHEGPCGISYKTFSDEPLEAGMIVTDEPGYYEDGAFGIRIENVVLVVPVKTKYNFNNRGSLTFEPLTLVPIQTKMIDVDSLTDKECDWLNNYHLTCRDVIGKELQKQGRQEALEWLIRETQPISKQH
# Chain of Dipeptidyl peptidase 4 (P27487 whole entry): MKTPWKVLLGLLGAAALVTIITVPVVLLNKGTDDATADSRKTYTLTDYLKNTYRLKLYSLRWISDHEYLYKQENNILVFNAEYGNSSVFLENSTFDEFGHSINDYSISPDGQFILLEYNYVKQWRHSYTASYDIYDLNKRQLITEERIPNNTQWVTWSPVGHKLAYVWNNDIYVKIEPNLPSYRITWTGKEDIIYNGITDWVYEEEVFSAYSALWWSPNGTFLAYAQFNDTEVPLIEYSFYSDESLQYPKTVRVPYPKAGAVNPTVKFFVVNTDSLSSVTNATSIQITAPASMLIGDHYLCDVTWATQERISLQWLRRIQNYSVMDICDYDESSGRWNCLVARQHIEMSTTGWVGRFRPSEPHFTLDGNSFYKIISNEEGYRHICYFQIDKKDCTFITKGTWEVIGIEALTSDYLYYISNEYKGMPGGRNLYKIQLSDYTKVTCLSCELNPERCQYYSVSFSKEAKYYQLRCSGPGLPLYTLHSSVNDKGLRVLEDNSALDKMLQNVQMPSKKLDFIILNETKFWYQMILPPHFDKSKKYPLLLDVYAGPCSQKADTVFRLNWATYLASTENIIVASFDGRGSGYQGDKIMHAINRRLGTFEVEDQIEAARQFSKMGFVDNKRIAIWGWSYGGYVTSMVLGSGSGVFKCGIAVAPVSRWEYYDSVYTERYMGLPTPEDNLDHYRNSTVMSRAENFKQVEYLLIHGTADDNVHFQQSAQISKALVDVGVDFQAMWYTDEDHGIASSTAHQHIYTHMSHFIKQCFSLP
# Chain of Dipeptidyl peptidase 8 (Q6V1X1 whole entry): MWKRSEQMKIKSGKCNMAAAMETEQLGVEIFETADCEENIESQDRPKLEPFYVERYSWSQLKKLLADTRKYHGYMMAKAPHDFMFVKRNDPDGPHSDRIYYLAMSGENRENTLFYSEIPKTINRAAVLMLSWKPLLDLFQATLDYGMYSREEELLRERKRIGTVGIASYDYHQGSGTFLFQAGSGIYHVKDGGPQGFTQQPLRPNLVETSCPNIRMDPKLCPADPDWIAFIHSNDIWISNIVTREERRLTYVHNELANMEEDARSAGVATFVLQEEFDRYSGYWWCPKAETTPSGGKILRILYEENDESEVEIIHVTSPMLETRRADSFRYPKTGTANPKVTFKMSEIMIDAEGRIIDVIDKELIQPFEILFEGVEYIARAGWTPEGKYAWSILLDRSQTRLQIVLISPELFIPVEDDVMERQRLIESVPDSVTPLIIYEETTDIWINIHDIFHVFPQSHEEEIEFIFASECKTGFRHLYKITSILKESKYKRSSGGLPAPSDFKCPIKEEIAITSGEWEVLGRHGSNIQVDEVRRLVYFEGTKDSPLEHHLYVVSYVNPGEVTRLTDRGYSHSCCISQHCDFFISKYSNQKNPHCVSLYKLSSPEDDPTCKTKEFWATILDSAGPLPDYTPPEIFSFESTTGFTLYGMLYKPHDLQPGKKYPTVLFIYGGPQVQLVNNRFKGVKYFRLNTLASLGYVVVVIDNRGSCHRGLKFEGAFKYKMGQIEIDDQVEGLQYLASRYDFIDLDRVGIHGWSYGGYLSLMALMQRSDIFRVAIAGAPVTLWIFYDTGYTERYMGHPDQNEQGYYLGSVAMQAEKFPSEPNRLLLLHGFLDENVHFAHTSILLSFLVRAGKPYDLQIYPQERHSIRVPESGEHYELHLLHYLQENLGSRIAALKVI
Compound,IC50 (Xaa-Pro aminopeptidase 1) [µM],IC50 (Xaa-Pro dipeptidase) [µM],IC50 (Prolyl endopeptidase FAP) [µM],IC50 (Dipeptidyl peptidase 4) [nM],IC50 (Dipeptidyl peptidase 8) [µM],IC50 (Dipeptidyl peptidase 2) [µM],IC50 (Dipeptidyl peptidase 9) [µM]
N[C@@H](CC(=O)N1CCNC[C@H]1Cc1ccccc1)Cc1ccccc1F,> 10,> 10,,,,,
N[C@@H](CC(=O)N1CCNCC1)Cc1ccccc1F,> 10,> 10,,,,,
C[C@H]1CN(C(=O)C[C@H](N)Cc2cc(F)c(F)cc2F)Cc2ccc(C(F)(F)F)n21,> 10,> 10,> 10,23,23,> 100,23
CC1(C)c2nnc(C(F)(F)F)n2CCN1C(=O)C[C@H](N)Cc1cc(F)c(F)cc1F,> 10,> 10,> 10,175,6,23,20
CC1(C)CN(C(=O)C[C@H](N)Cc2cc(F)c(F)cc2F)Cc2nnc(C(F)(F)F)n21,> 10,> 10,> 10,92,66,77,54
C[C@@H]1Cn2c(nnc2C(F)(F)F)CN1C(=O)C[C@H](N)Cc1cc(F)c(F)cc1F,> 10,> 10,> 10,42,75,> 100,> 100
C[C@H]1c2nnc(C(F)(F)F)n2[C@@H](C)CN1C(=O)C[C@H](N)Cc1cc(F)c(F)cc1F,> 10,> 10,> 10,209,> 100,> 100,> 100
C[C@H]1c2nnc(C(F)(F)F)n2CCN1C(=O)C[C@H](N)Cc1cc(F)c(F)cc1F,> 10,> 10,> 10,88,> 100,> 100,> 100
C[C@H]1Cn2c(nnc2C(F)(F)F)CN1C(=O)C[C@H](N)Cc1cc(F)c(F)cc1F,> 10,> 10,> 10,91,> 100,74,53
N[C@@H](CC(=O)N1CCn2c(nnc2C(F)(F)F)[C@@H]1Cc1ccc(F)cc1)Cc1cc(F)c(F)cc1F,> 10,> 10,> 10,116,> 100,39,> 100
"N[C@@H](CC(=O)N1CCn2c(nnc2C(F)(F)F)C1Cc1ccccc1)Cc1cc(F)c(F)cc1F (single isomer, unassigned)",> 10,> 10,> 10,140,> 100,87,> 100
CC1c2nnc(C(F)(F)F)n2C(C)CN1C(=O)C[C@H](N)Cc1cc(F)c(F)cc1F (stereo in doubt; 16a),> 10,> 10,> 10,100,> 100,> 100,> 100
CC1c2nnc(C(F)(F)F)n2C(C)CN1C(=O)C[C@H](N)Cc1cc(F)c(F)cc1F (stereo in doubt; 16d),> 10,> 10,> 10,11,44,> 100,62
CCC1c2nnc(C(F)(F)F)n2CCN1C(=O)C[C@H](N)Cc1cc(F)c(F)cc1F (stereo in doubt; 38a),> 10,> 10,> 10,113,> 100,> 100,> 100
CCC1c2nnc(C(F)(F)F)n2CCN1C(=O)C[C@H](N)Cc1cc(F)c(F)cc1F (stereo in doubt; 38b),> 10,> 10,> 10,5,8,47,> 100
N[C@@H](CC(=O)N1CCn2c(nnc2C(F)(F)F)C1CC(F)(F)F)Cc1cc(F)c(F)cc1F (stereo in doubt; 39a),> 10,> 10,> 10,123,> 100,30,> 100
N[C@@H](CC(=O)N1CCn2c(nnc2C(F)(F)F)C1CC(F)(F)F)Cc1cc(F)c(F)cc1F (stereo in doubt; 39b),> 10,> 10,> 10,5.7,1.6,60,26
C=CCC1c2nnc(C(F)(F)F)n2CCN1C(=O)C[C@H](N)Cc1cc(F)c(F)cc1F (stereo in doubt; 40a),> 10,> 10,> 10,1.5,3,33,41
C=CCC1c2nnc(C(F)(F)F)n2CCN1C(=O)C[C@H](N)Cc1cc(F)c(F)cc1F (stereo in doubt; 40b),> 10,> 10,> 10,32,72,62,> 100
CN(C)C(=O)CC1c2nnc(C(F)(F)F)n2CCN1C(=O)C[C@H](N)Cc1cc(F)c(F)cc1F (stereo in doubt; 41a),> 10,> 10,> 10,377,> 100,> 100,> 100
N[C@@H](CC(=O)N1CCn2c(nnc2C(F)(F)F)C1Cc1ccccc1)Cc1cc(F)c(F)cc1F (stereo in doubt; 42b),> 10,> 10,> 10,0.66,0.622,52,24
COc1ccc(CC2c3nnc(C(F)(F)F)n3CCN2C(=O)C[C@H](N)Cc2cc(F)c(F)cc2F)cc1 (stereo in doubt; 43a),> 10,> 10,> 10,320,> 100,> 100,> 100
COc1ccc(CC2c3nnc(C(F)(F)F)n3CCN2C(=O)C[C@H](N)Cc2cc(F)c(F)cc2F)cc1 (stereo in doubt; 43b),> 10,> 10,> 10,0.43,0.367,57,18
N[C@@H](CC(=O)N1CCn2c(nnc2C(F)(F)F)C1Cc1ccccc1C(F)(F)F)Cc1cc(F)c(F)cc1F (stereo in doubt; 44a),> 10,> 10,> 10,438,> 100,83,> 100
N[C@@H](CC(=O)N1CCn2c(nnc2C(F)(F)F)C1Cc1ccccc1C(F)(F)F)Cc1cc(F)c(F)cc1F (stereo in doubt; 44b),> 10,> 10,> 10,0.31,8,41,> 100
N[C@@H](CC(=O)N1CCn2c(nnc2C(F)(F)F)C1Cc1ccccc1F)Cc1cc(F)c(F)cc1F (stereo in doubt; 45a),> 10,> 10,> 10,131,> 100,76,> 100
N[C@@H](CC(=O)N1CCn2c(nnc2C(F)(F)F)C1C(O)c1ccc(F)cc1)Cc1cc(F)c(F)cc1F (stereo in doubt; 47a),> 10,> 10,> 10,430,> 100,48,> 100
N[C@@H](CC(=O)N1CCn2c(nnc2C(F)(F)F)C1C(O)c1ccc(F)cc1)Cc1cc(F)c(F)cc1F (stereo in doubt; 47c),> 10,> 10,> 10,90,40,> 100,> 100
N[C@@H](CC(=O)N1CCn2c(nnc2C(F)(F)F)C1C(O)c1ccc(F)cc1)Cc1cc(F)c(F)cc1F (stereo in doubt; 47d),> 10,> 10,> 10,0.5,0.628,41,> 100

# Source: ChEMBL document CHEMBL1140747, “Discovery of potent and selective dipeptidyl peptidase IV inhibitors derived from beta-aminoamides bearing subsituted triazolopiperazines” (J Med Chem, 2008)
